Read-outs that look alike come from different tables or passages of the source. Marks after values point to notes of the source that are not given here.
Legend:
[1] = surgical ICU patients; 24-hour trough plasma concentration; cited from earlier work
Text: The pharmacokinetics of caspofungin have been recently studied in a cohort of surgical ICU patients. […] Therefore, the authors concluded that a dose adjustment may be necessary in some ICU patients, based on the monitoring of plasma conc ...

[2] = Lung tissue caspofungin concentration and tissue-to-plasma ratio in pigs; type: in vivo; conditions: pig
Experimental: (§1) In the shock group (n = 12), the animals were bled through the carotid catheter (Figure 1). Blood withdrawal was started at a rate of 0.8 to 1 mL/kg/minute and continued until all three of the following end points were achieved: MAP of 40 to 45 mmHg, decrease in CI greater than 40% and SVO2 lower than 30%. End points were maintained for a period of 120 minutes by means of further bleeding. During the four-hour resuscitation period, the animals received isotonic saline at a rate of 2 mL/kg/minute. The infusions were stopped when the CI reached 90% of the baseline value and SVO2 was above 50%, and the infusions were then adjusted to keep these parameters constant until the animals were killed. At the beginning of the resuscitation period, the animals received a one-hour intravenous infusion of 70 mg of caspofungin acetate (Cancidas; Merck Sharp & Dohme-Chibret, Paris, France) diluted in 50 mL of saline, which was injected into the right atrium through the proximal lumen of the pulmonary arterial catheter via a pump-driven syringe. A second group of animals (n = 16) used as controls was anaesthetised and ventilated, but they were not subjected to bleeding and fluid loading. These animals were also killed four hours after the start of the caspofungin infusion.
EDTA-blood samples were drawn through a dedicated arterial catheter just before and 15, 30, 60 and 90 minutes and 2 hours, 3 hours and 4 hours after the caspofungin infusions were started in both groups. Then the animals were immediately killed, and lung tissue samples (2 cm × 2 cm × 2 cm) were surgically removed from nondependent parts of both the lower and upper lobes after sternotomy. Plasma was obtained by blood centrifugation at 1,500 g for 15 minutes. Plasma and lung samples were immediately stored at -80°C. The remaining lung tissues were used for the determination of extravascular lung water indexed to body weight (EVLWI) by using a gravimetric method as previously described. Caspofungin acetate was kindly provided by Merck Sharp & Dohme-Chibret. Plasma and lung caspofungin concentrations were determined by using a validated high-performance liquid chromatography method with fluorescence detection after a solid-phase extraction (Bond Elut™ column; Agilent Technologies, Santa Clara, CA, USA). Caspofungin and the internal standard (IS) propranolol were separated on a LiChrospher column (100 RP-8e (5 μm); Merck Chemicals KGaA, Darmstadt, Germany) using a mobile phase consisting of acetonitrile and 0.1% trifluoroacetic acid buffer (200:300 vol/vol) at a flow rate of 1 mL/minute. The retention times were 6 and 22 minutes for IS and caspofungin, respectively. The linearity range was 0.3 to 7.5 mg/L (r^2 > 0.998). The lower limit of quantification, defined as the lowest concentration that could be determined with a relative error and precision (relative standard deviation) less than 20%, was 0.3 μg/mL. […] The maximal concentration (Cmax) was measured at the end of the infusion.
Lung samples were weighed (200 ± 150 mg), homogenised with a 1.5-mL saline solution, ground for 15 minutes and centrifuged twice at 10,000 rpm for 10 minutes. […] Lung caspofungin concentrations (Ct) were determined four hours after starting the caspofungin infusion and are expressed as micrograms per gram of lung tissue. The tissue-to-plasma ratio for each group was calculated as R = (Ct/Cp) × 100, where Cp is the caspofungin plasma concentration at four hours.

[3] = Two-compartment population pharmacokinetic analysis (Monolix) of plasma caspofungin in pigs; type: in vivo; conditions: pig; for Q (intercompartmental clearance) / V1 (central volume of distribution) / V2 (peripheral volume of distribution) / clearance: two-compartment population estimate; for clearance: 70 mg one-hour iv infusion, read-out: CL (central elimination clearance) (converted)
Experimental: (§2) The AUC from zero to four hours (AUC0→4 hours) was determined using the trapezoidal rule. The concentration vs time data for both groups were modelled using the population approach method implemented in Monolix version 3.1 release 2 software. A two-compartment mammillary model was developed and parameterised in terms of central volume of distribution of caspofungin (V1) and elimination clearance of caspofungin (CL), peripheral volume of distribution of caspofungin (V2) and intercompartmental clearance of caspofungin (Q). The total apparent volume of distribution of caspofungin (Vd) was calculated as V1 + V2. The interindividual variability (ω) for each parameter and the residual variability of the model (σ) were estimated.

[4] = Caspofungin plasma pharmacokinetics in anaesthetised, ventilated pigs (shock vs control); type: in vivo; conditions: pig, 70 mg one-hour iv infusion; for level at 4 h / AUC(0-t): iv, 70 mg; for level at 4 h: four hours after start of infusion, read-out: Cp (caspofungin plasma concentration at four hours); for AUC(0-t): unit as printed in abstract, read-out: area under curve (AUC) from zero to four hours
Experimental: as §1
EDTA-blood samples were drawn through a dedicated arterial catheter just before and 15, 30, 60 and 90 minutes and 2 hours, 3 hours and 4 hours after the caspofungin infusions were started in both groups. Then the animals were immediately killed, and lung tissue samples (2 cm × 2 cm × 2 cm) were surgically removed from nondependent parts of both the lower and upper lobes after sternotomy. Plasma was obtained by blood centrifugation at 1,500 g for 15 minutes. Plasma and lung samples were immediately stored at -80°C. The remaining lung tissues were used for the determination of extravascular lung water indexed to body weight (EVLWI) by using a gravimetric method as previously described. Caspofungin acetate was kindly provided by Merck Sharp & Dohme-Chibret. Plasma and lung caspofungin concentrations were determined by using a validated high-performance liquid chromatography method with fluorescence detection after a solid-phase extraction (Bond Elut™ column; Agilent Technologies, Santa Clara, CA, USA). Caspofungin and the internal standard (IS) propranolol were separated on a LiChrospher column (100 RP-8e (5 μm); Merck Chemicals KGaA, Darmstadt, Germany) using a mobile phase consisting of acetonitrile and 0.1% trifluoroacetic acid buffer (200:300 vol/vol) at a flow rate of 1 mL/minute. The retention times were 6 and 22 minutes for IS and caspofungin, respectively. The linearity range was 0.3 to 7.5 mg/L (r^2 > 0.998). The lower limit of quantification, defined as the lowest concentration that could be determined with a relative error and precision (relative standard deviation) less than 20%, was 0.3 μg/mL. Intraday and interday levels of interassay precision were 1.91% and 4.84% (0.5 μg/mL), 6.94% and 10.4% (3 μg/mL) and 7.84% and 12% (5 μg/mL) for serum samples. The maximal concentration (Cmax) was measured at the end of the infusion.
as §2

[5] = healthy humans, single dose of 70 mg, cited from earlier work
Experimental: In the early clinical development program for caspofungin, a target concentration of 1 μg/mL was used as a guide for concentrations likely to be efficacious. This target was determined on the basis of in vitro susceptibility test results and was selected as the concentration that exceeded the minimal inhibitory concentration at which 90% of Candida spp. isolates were inhibited.

Which results are given for `CC[C@H](C)C[C@H](C)CCCCCCCCC(=O)N[C@H]1C[C@@H](O)[C@@H](NCCN)NC(=O)[C@@H]2[C@@H](O)CCN2C(=O)[C@H]([C@H](O)CCN)NC(=O)[C@H]([C@H](O)[C@@H](O)c2ccc(O)cc2)NC(=O)[C@@H]2C[C@@H](O)CN2C(=O)[C@H]([C@@H](C)O)NC1=O` [caspofungin, caspofungin acetate]?
patients in whom the trough concentration at day 2 of treatment exceeded 1.0 μg/mL [1]: 75%; Ct (lung caspofungin concentration at four hours) ([2]; control group (n = 16), 70 mg one-hour iv infusion, lung homogenate, four sampled lobes averaged, HPLC with fluorescence detection, median): 1.64 µg/g; Ratio = (Ct/Cp) × 100 (lung tissue-to-plasma ratio) ([2]; control group (n = 16), four hours after start of infusion, median): 7.28%; tissue level at time at 4 h ([2]; shock group (n = 12), 70 mg one-hour iv infusion, lung homogenate, four sampled lobes averaged, HPLC with fluorescence detection, median, read-out: Ct (lung caspofungin concentration at four hours)): 1220 ng/g; Ratio = (Ct/Cp) × 100 (lung tissue-to-plasma ratio) ([2]; shock group (n = 12), four hours after start of infusion, median): 7.76%; median lung caspofungin concentration lower in the shock group than in the control group ([2]; shock vs control group, four hours after start of infusion): 25%; Q (intercompartmental clearance) ([3]; control group (n = 16)): 4.23 L/h; V1 (central volume of distribution) ([3]; control group (n = 16)): 0.98 L; V2 (peripheral volume of distribution) ([3]; control group (n = 16)): 1.43 L; clearance ([3]; plasma, iv, 70 mg, control group (n = 16)): 4.83 mL/min; clearance ([3]; plasma, iv, 70 mg, shock group (n = 12)): 3.5 mL/min; Q (intercompartmental clearance) ([3]; shock group (n = 12)): 8.16* L/hour; V1 (central volume of distribution) ([3]; shock group (n = 12)): 0.96 L; V2 (peripheral volume of distribution) ([3]; shock group (n = 12)): 2.8* L; Vd ([3]; plasma, iv, 70 mg, shock group (n = 12), calculated as V1 + V2, read-out: Vd (total apparent volume of distribution)): 3.9 L; Cmax (maximum caspofungin plasma concentration) ([4]; control group (n = 16), no haemorrhage, measured at end of infusion, HPLC with fluorescence detection, median): 33.1 µg/mL; level at 4 h ([4]; plasma, control group (n = 16), median): 20.7 µg/mL; AUC(0-t) ([4]; plasma, control group, median): 80.8 µg·h/mL; level at 4 h ([4]; plasma, shock group (n = 12), median): 16.1 µg/mL; AUC(0-t) ([4]; plasma, shock group, median): 60.3 µg·h/mL; median AUC0→4 hours lower in the shock group than in the control group ([4]; shock vs control group): 25%; median maximal plasma concentration lower in the shock group than in the control group ([4]; shock vs control group): 35%; Cmax ([4]; plasma, shock group (n = 12), hypovolaemic shock then saline fluid loading, measured at end of infusion, HPLC with fluorescence detection, median, read-out: Cmax (maximum caspofungin plasma concentration)): 21.6 µg/mL; concentration at 24 hours (trough concentration) ([5]; mean (95% confidence interval, 1.18 to 1.71)): 1.42 µg/mL; mean plasma Cmax ([5]; mean (95% confidence interval, 10.87 to 13.33)): 12.04 µg/mL

Source: publication PMC3334764, “Effect of fluid loading during hypovolaemic shock on caspofungin pharmacokinetic parameters in pig” (Critical Care, 2011)
